Data reported in patent publication US20050245510A1 (Boehringer Ingelheim Vetmedica GmbH, priority 2004, published 2005).

Key:
mastitis cases = conditions: infused intramammarily in special vehicle together with amoxicillin/clavulanic acid; cited from earlier work
[1] = tested on: E. coli endotoxin 026:B6 lipopolysaccharide induced mastitis in lactating cows; type: in vivo
Method: A blinded in-vivo study with a parallel group design was conducted in 2003. The study was conducted according to Good Laboratory Practices.
The animals were clinically examined before endotoxin-challenge and at 2 h (before treatment), 4 h, 6 h, 8 h, 10 h, 24 h, 34 h, 48 h, 72 h, 7 days, and 14 days after endotoxin-challenge.
The size of the challenged udder quarter was documented using the following score: • 0 Normal • 1 Slight increase up to 20% • 2 20-50% increase • 3 More than 50% increase
Ruminal contractions during a 2 minutes period were examined by auscultation in the left paralumbar fossa. In painful conditions of any kind, the frequency of ruminal contractions in ruminants tends to decrease.
Milk samples for analysis of thromboxane B2 (TBX)—a relevant mediator of inflammation—were taken from the endotoxin-challenged quarter before endotoxin challenge and at 2 h (before treatment), 4 h, 6 h, 8 h, 10 h, and 24 h after endotoxin-challenge.
Milk somatic cell count (SCC) was measured before endotoxin-challenge and at 10 h, 24 h, 34 h, 48 h, 72 h, 7 days, and 14 days after challenge.

Row | SMILES | effect on pain perception (mastitis cases) | ruminal contractions in 2 min, mean ± S.D. ([1]; 30 mg meloxicam per quarter, at 24 h after challenge) | size of challenged udder quarter, mean score ± S.D. ([1]; 30 mg meloxicam per quarter, intramammary 2 h after challenge, at 10 h after challenge) | standardised difference of udder size score versus untreated ([1]; 30 mg meloxicam, 10 h, difference in means divided by larger S.D. (untreated group)) | standardised difference of ruminal contractions versus untreated ([1]; 30 mg meloxicam, 24 h, calculated with larger S.D. (untreated group)) | local and systemic tolerance ([1]; intramammary, dose range 10-50 mg per affected udder quarter)
1 | Cc1c(Nc2ncccc2C(=O)O)cccc1C(F)(F)F [flunixin, flunixin meglumine] | no beneficial effect on pain perception |  |  |  |  | 
2 | Cc1cnc(NC(=O)C2=C(O)c3ccccc3S(=O)(=O)N2C)s1 [meloxicam] |  | 3.4±0.55 | 1.2±0.44 score (0-3) | 1.2 | 0.9 | good
